Earlier results on one sequence are cited in US9206237B2, “Cystine knot peptides that bind alpha-V-beta-6 integrin” (priority 2011, dated 2015).

Like-named read-outs stand apart in the source and are kept apart here.

The target of data set [1] is T1, alpha-v-beta-6 (Homo sapiens, UniProt P06756+P18564). The note with it: read-out: IC50, cell adhesion assays.
Target sequence in this assay (P06756 31-1048): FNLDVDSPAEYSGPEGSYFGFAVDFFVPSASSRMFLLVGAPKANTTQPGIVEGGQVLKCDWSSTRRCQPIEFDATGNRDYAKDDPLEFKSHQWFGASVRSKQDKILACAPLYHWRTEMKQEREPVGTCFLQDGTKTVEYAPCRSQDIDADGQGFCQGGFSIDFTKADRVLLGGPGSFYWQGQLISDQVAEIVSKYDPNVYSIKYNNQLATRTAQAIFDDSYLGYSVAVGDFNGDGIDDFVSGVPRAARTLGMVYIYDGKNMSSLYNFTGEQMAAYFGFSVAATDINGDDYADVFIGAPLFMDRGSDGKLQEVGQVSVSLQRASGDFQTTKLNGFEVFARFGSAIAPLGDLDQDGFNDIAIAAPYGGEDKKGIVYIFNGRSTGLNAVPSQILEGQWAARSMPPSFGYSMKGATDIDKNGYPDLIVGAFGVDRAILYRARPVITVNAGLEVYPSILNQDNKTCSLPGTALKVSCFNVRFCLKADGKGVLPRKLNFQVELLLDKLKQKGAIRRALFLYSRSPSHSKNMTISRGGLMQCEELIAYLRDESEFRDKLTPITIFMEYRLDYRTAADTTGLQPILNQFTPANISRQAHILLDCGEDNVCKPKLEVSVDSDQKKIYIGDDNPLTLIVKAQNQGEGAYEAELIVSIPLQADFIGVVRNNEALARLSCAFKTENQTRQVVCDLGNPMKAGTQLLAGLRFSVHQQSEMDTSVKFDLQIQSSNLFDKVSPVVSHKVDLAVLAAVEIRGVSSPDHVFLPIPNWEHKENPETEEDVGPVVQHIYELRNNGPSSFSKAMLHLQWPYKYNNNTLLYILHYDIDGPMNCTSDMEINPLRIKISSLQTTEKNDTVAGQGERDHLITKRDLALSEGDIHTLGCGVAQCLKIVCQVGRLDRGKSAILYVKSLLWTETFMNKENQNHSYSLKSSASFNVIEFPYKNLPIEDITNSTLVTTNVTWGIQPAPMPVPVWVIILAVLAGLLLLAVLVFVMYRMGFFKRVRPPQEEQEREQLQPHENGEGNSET
Target sequence in this assay (P18564 22-788): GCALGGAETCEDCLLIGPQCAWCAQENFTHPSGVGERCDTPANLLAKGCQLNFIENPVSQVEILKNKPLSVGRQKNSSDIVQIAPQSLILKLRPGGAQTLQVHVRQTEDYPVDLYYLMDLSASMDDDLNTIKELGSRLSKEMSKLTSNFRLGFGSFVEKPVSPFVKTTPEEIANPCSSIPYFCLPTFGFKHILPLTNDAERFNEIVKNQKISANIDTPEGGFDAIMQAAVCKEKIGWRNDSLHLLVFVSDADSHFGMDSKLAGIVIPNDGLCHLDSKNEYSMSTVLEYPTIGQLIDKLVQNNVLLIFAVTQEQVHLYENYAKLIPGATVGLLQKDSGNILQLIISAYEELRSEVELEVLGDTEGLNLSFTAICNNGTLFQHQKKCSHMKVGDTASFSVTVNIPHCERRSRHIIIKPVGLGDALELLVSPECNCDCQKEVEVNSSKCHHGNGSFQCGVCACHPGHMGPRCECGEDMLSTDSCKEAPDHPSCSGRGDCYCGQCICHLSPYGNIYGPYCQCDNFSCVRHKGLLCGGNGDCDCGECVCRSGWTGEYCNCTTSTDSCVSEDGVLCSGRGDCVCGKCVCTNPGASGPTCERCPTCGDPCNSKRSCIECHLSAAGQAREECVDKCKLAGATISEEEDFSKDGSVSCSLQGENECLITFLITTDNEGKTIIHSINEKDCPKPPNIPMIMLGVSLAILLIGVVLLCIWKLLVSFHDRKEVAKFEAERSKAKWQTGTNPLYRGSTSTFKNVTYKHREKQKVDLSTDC
The target of data set [2] is T1, alpha-v-beta-6. The conditions noted are these: inhibition of RGD-dependent ligand binding; read-out: IC50, isolated receptor assays.
Target sequence in this assay (P06756 31-992 limits assumed): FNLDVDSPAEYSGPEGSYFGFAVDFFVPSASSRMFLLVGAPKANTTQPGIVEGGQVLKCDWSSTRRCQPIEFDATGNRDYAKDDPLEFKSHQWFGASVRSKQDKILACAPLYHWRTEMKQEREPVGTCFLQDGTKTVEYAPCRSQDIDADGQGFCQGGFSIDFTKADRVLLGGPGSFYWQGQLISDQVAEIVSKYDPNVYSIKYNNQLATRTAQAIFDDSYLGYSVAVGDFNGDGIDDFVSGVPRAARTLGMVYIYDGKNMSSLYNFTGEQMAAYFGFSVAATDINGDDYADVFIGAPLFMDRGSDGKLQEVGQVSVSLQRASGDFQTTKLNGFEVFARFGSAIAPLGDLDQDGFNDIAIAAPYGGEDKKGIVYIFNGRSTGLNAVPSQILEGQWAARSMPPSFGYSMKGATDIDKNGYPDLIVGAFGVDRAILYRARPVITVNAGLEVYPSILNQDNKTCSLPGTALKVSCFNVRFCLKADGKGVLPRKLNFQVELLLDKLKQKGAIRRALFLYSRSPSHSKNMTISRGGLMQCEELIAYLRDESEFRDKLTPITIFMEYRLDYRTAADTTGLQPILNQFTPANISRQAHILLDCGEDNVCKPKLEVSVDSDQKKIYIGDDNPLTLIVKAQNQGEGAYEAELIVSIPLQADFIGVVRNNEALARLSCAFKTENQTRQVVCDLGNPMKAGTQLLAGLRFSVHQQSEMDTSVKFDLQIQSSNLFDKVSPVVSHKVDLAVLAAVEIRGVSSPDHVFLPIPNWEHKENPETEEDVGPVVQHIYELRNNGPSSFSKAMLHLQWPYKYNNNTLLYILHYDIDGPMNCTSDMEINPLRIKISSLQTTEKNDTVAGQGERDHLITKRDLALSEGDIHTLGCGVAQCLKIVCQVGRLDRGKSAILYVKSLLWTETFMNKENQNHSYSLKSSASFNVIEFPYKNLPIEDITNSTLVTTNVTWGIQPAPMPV
Target sequence in this assay (P18564 22-709 limits assumed): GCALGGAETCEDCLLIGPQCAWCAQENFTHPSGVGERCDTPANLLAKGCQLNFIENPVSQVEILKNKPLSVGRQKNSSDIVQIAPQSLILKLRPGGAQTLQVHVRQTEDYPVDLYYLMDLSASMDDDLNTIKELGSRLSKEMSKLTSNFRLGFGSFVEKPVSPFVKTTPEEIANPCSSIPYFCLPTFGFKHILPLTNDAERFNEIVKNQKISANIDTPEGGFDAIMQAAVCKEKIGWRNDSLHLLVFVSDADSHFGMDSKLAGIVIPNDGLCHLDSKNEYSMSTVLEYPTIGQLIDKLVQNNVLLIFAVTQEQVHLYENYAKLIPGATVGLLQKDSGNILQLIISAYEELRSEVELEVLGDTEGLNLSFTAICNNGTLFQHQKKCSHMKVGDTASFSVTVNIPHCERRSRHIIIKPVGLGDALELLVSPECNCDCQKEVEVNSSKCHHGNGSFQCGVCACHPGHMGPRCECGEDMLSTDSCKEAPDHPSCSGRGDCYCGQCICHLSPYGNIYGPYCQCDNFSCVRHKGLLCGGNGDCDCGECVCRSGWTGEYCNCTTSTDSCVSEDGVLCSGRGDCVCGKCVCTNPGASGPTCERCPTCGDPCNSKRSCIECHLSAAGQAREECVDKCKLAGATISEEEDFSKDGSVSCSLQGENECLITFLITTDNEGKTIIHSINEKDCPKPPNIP

By IC50 is commonly meant the concentration needed to halve the response being measured. Turning to RTDLDSLRTYTL, the IC50 on alpha-v-beta-6 [1] is 50 µM; on alpha-v-beta-6 [2], 20 nM.
